According to patent publication US20050203086A1, “Methods of treatment using an EP2 selective receptor agonist” (Pfizer Inc., priority 2004, published 2005):

Target: T1, prostaglandin E2 type 2 (EP2) receptors (Homo sapiens, UniProt P43116)
T1 construct: These full length receptors are used to prepare 293S cells expressing the EP1, EP2, EP3 and EP4 receptors; expressed in transfected cells; membranes
Experiment: Assay for Binding to Prostaglandin E2 Receptors (3H-prostaglandin E2 displacement, membranes of transfected 293S cells)
Settings: concentration displacing 50% of specifically bound 3H-prostaglandin E2, 1 hour at 25° C.
Method: Membrane Preparation: All operations are performed at […]. Transfected cells expressing prostaglandin E2 type 1 receptors (EP1), type 2 (EP2), type 3 (EP3) or type 4 (EP4) receptors are harvested and suspended to 2 million cells per ml in Buffer A [50 mM Tris-HCl (pH 7.4), 10 mM MgCl2, 1 mM EDTA, 1 mM Pefabloc peptide, (Boehringer Mannheim Corp., Indianapolis, Ind.), 10 uM Phosporamidon peptide, (Sigma, St. Louis, Mo.), 1 uM pepstatin A peptide, (Sigma, St. Louis, Mo.), 10 uM elastatinal peptide, (Sigma, St. Louis, Mo.), 100 uM antipain peptide, (Sigma, St. Louis, Mo.)]. The cells are lysed by sonification with a Branson Sonifier (Model #250, Branson Ultrasonics Corporation, Danbury, Conn.) in 2 fifteen second bursts. Unlysed cells and debris are removed by centrifugation, at 100×g for 10 min. Membranes are then harvested by centrifugation at 45,000×g for 30 minutes. […] Resuspended membranes are then stored frozen at −80° C. until use.
Binding Assay: Frozen membranes prepared as above are thawed and diluted to 1 mg protein per ml in Buffer A above. […] The membranes with bound ^3H-prostaglandin E2 are trapped by the filter, while the buffer and unbound ^3H-prostaglandin E2 pass through the filter into waste. Each sample is then washed 3 times with 3 ml of [50 mM Tris-HCl (pH 7.4), 10 mM MgCl2, 1 mM EDTA]. The filters are then dried by heating in a microwave oven.
Typically, PCR (polymerase chain reaction) primers corresponding to the 5′ and 3′ ends of the published full length receptor are made according to the well known methods disclosed above and are used in an RT-PCR reaction using the total RNA from human kidney (for EP1), human lung (for EP2), human lung (for EP3) or human lymphocytes (for EP4) as a source. PCR products are cloned by the TA overhang method into pCR2.1 (Invitrogen, Carlsbad, Calif.) and identity of the cloned receptor is confirmed by DNA sequencing.
Stable cell lines expressing the receptor are established following selection of transfected cells with G418.

T1 sequence (P43116 whole entry): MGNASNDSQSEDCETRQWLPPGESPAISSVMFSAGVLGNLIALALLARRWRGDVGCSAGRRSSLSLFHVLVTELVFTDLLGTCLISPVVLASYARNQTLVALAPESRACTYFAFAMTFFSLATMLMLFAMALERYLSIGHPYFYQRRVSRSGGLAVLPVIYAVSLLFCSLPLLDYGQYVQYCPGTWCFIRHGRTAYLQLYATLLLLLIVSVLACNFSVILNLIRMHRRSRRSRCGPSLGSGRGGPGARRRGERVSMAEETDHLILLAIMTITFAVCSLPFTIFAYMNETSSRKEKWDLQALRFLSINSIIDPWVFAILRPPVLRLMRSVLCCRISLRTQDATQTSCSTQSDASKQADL

SMILES | IC50 [nM]
O=C(O)Cc1cccc(CN(Cc2ccc(-c3ncccn3)cc2)S(=O)(=O)c2cccnc2)c1 [Example 1t, (3-(((Pyridine-3-sulfonyl)-(4-pyrimidin-2-yl-benzyl)-amino)-methyl)-phenyl)-acetic acid] | 8
O=C(O)Cc1cccc(CN(Cc2ccc(-c3nccs3)cc2)S(=O)(=O)c2cccnc2)c1 [Example 1u, (3-(((Pyridine-3-sulfonyl)-(4-thiazol-2-yl-benzyl)-amino)-methyl)-phenyl)-acetic acid] | 7
Cn1cnc(S(=O)(=O)N(Cc2ccc(-c3nccs3)cc2)Cc2cccc(CC(=O)O)c2)c1 [Example 1v, (3-(((1-Methyl-1H-imidazole-4-sulfonyl)-(4-thiazol-2-yl-benzyl)-amino)-methyl)-phenyl)-acetic acid] | 9
CN(C)c1ccc(CN(Cc2cccc(CC(=O)O)c2)S(=O)(=O)c2cccnc2)cc1 [Example 1w, (3-(((4-Dimethylamino-benzyl)-(pyridine-3-sulfonyl)-amino]-methyl)-phenyl)-acetic acid] | 24
O=C(O)COc1cccc(CN(Cc2ccc(C3CCCCC3)cc2)S(=O)(=O)c2cccnc2)c1 [Example 1x, (3-(((4-Cyclohexyl-benzyl)-(pyridine-3-sulfonyl)-amino)-methyl)-phenoxy)-acetic acid] | 160
O=C(O)COc1cccc(CN(CCOc2cc(Cl)cc(Cl)c2)S(=O)(=O)c2cccnc2)c1 [Example 1y, (3-(((2-(3.5-Dichloro-phenoxy)-ethyl)-(pyridine-3-sulfonyl)-amino)-methyl)-phenoxy)-acetic acid] | 13
CN(C)c1ccc(CN(Cc2cccc(OCC(=O)O)c2)S(=O)(=O)c2cccnc2)cc1 [Example 1z, (3-(((4-Dimethylamino-benzyl)-(pyridine-3-sulfonyl)-amino)-methyl)-phenoxy)-acetic acid] | 19
O=C(O)Cc1cccc(CN(CCOc2cccc(Cl)c2)S(=O)(=O)c2cccnc2)c1 [Example 2, (3-(((2-(3-Chloro-phenoxy)-ethyl)-(Pyridine-3-sulfonyl)-amino]-methyl)-phenyl)-acetic acid] | 45
O=C(O)Cc1cccc(CN(C/C=C/c2cc(Cl)cc(Cl)c2)S(=O)(=O)c2cccnc2)c1 [Example 2a, Trans-(3-(((3-(3,5-Dichloro-phenyl)-allyl)-(pyridine-3-sulfonyl)-amino)-methyl)-phenyl)-acetic acid] | 37
O=C(O)Cc1cccc(CN(CCOc2cc(Cl)cc(Cl)c2)S(=O)(=O)c2cccnc2)c1 [Example 2b, (3-(((2-(3.5-Dichloro-phenoxy)-ethyl)-(pyridine-3-sulfonyl)-amino)-methyl)-phenyl)-acetic acid] | 385
O=C(O)c1ccc(CCCN(CCSc2cccc(Cl)c2)S(=O)(=O)c2cccnc2)s1 [Example 3a, 5-(3-((2-(3-Chloro-phenylsulfanyl)-ethyl)-(pyridine-3-sulfonyl)-amino)-propyl) thiophene-2-carboxylic acid] | 440
O=C(O)COc1cccc(CN(Cc2ccc(-c3nccs3)cc2)S(=O)(=O)c2cccnc2)c1 [Example 3b, (3-(((Pyridine-3-sulfonyl)-(4-thiazol-2-yl-benzyl)-amino)-methyl)-phenoxy)-acetic acid.2TFA] | 7.83
O=C(O)c1ccc(CCCN(CCCc2cccc(Cl)c2)S(=O)(=O)c2cccnc2)s1 [Example 4, 5-(3-((3-(3-Chloro-phenyl)-propyl)-(pyridine-3-sulfonyl)-amino)-propyl)-thiophene-2-carboxylic acid] | 225
COc1ccc(S(=O)(=O)N(CCCc2cccc(Cl)c2)CCCc2ccc(C(=O)O)s2)cc1 [Example 4a, 5-(3-((3-(3-Chloro-phenyl)-propyl)-(4-methoxy-benzenesulfonyl)-amino)-propyl)-thiophene-2-carboxylic acid] | 795
O=C(O)c1ccc(CCCN(CCCc2cccc(Cl)c2)S(=O)(=O)c2cccc3nsnc23)s1 [Example 4b, 5-(3-((Benzo[1,2.5]thiadiazole-4-sulfonyl)-(3-(3-chloro-phenyl)-propyl)-amino)-propyl)-thiophene-2-carboxylic acid] | 440
O=C(O)c1ccc(CCCN(CCCc2cccc(Cl)c2)S(=O)(=O)Cc2ccccc2)s1 [Example 4d, 5-(3-((3-(3-Chloro-phenyl)-propyl)-phenylmethanesulfonyl-amino)-propyl)-thiophene-2-carboxylic acid] | 175
O=C(O)c1ccc(CCCN(CCCc2cccc(Cl)c2)S(=O)(=O)c2cccnc2)o1 [Example 4e, 5-(3-((3-(3-Chloro-phenyl)-propyl)-(pyridine-3-sulfonyl)-amino)-propyl)-furan-2-carboxylic acid] | 410
O=C(O)c1ccc(CCCN(CCCc2cccc(Cl)c2)S(=O)(=O)c2ccc3ccccc3c2)s1 [Example 4f, 5-(3-((3-(3-Chloro-phenyl)-propyl)-(naphthalene-2-sulfonyl)-amino)-propyl)-thiophene-2-carboxylic acid] | 705
O=C(O)c1ccc(CCCN(CCCc2cccc(Cl)c2)S(=O)(=O)c2cccc3ccccc23)s1 [Example 4g, 5-(3-((3-(3-Chloro-phenyl)-propyl)-(naphthalene-1-sulfonyl)-amino)-propyl)-thiophene-2-carboxylic acid] | 720
CC(=O)Nc1nc(C)c(S(=O)(=O)N(CCCc2cccc(Cl)c2)CCCc2ccc(C(=O)O)s2)s1 [Example 4h, 5-(3-((2-Acetylamino-4-methyl-thiazole-5-sulfonyl)-(3-(3-chloro-phenyl)-propyl)-amino)-propyl)-thiophene-2-carboxylic acid] | 210
O=C(O)c1ccc(CCCN(CCCc2cccc(Cl)c2)C(=O)c2cccnc2)s1 [Example 5, 5-(3-((3-(3-Chloro-phenyl)-propyl)-(pyridine-3-carbonyl)-amino)-propyl)-thiophene-2-carboxylic acid] | 980
O=C(O)c1ccc(CCCN(CCCc2cccc(Cl)c2)S(=O)(=O)c2ccccc2Cl)s1 [Example 6, 5-(3-((2-Chloro-benzenesulfonyl)-(3-(3-chloro-phenyl)-propyl)-amino)-propyl)-thiophene-2-carboxylic acid] | 315

The remaining lines, values ahead:

IC50 [nM] | SMILES
355 | O=C(O)c1ccc(CCCN(CCCc2cccc(Cl)c2)C(=O)Cc2ccccn2)s1 [Example 5a, 5-(3-((3-(3-Chloro-phenyl)-propyl)-(pyridin-2-yl-acetyl)-amino)-propyl)-thiophene-2-carboxylic acid]
640 | O=C(O)c1ccc(CCCN(CCCc2cccc(Cl)c2)C(=O)Cc2cccnc2)s1 [Example 5b, 5-(3-((3-(3-Chloro-phenyl)-propyl)-(Pyridin-3-yl-acetyl)-amino)-propyl)-thiophene-2-carboxylic acid]
325 | Cc1ccc(C)c(S(=O)(=O)N(CCCc2cccc(Cl)c2)CCCc2ccc(C(=O)O)s2)c1 [Example 6a, 5-(3-((3-(3-Chloro-phenyl)-propyl)-(2,5-dimethyl-benzenesulfonyl)-amino)-propyl)-thiophene-2 carboxylic acid]
300 | O=C(O)c1ccc(CCCN(CCCc2cccc(Cl)c2)S(=O)(=O)CCCCNC(=O)c2ccccc2C(=O)O)s1 [Example 6c, 5-(3-((4-(2-Carboxy-benzoylamino)-butane-1-sulfonyl)-(3-(3-chloro-phenyl)-propyl)-amino)-propyl)-thiophene-2-carboxylic acid]
170 | O=C(O)c1ccc(CCCN(CCCc2cccc(Cl)c2)S(=O)(=O)c2ccc(-n3ncc(=O)[nH]c3=O)cc2)s1 [Example 6d, 5-(3-((3-(3-Chloro-phenyl)-propyl)-(4-(3,5-dioxo-4,5-dihydro-3H-[1,2,4]triazin-2-yl)-benzenesulfonyl)-amino)-propyl)-thiophene-2-carboxylic acid]
325 | COC(=O)c1ccccc1S(=O)(=O)N(CCCc1cccc(Cl)c1)CCCc1ccc(C(=O)O)s1 [Example 6e, 5-(3-((3-(3-Chloro-Phenyl)-propyl)-(2-methoxycarbonyl-benzenesulfonyl)-amino)-propyl)-thiophene-2-carboxylic acid]
490 | O=C(O)c1ccc(CCCN(CCCc2cccc(Cl)c2)S(=O)(=O)c2ccc(Br)cc2)s1 [Example 6f, 5-(3-((4-Bromo-benzenesulfonyl)-(3-(3-chloro-phenyl)-propyl)-amino)-propyl)-thiophene-2-carboxylic acid]
350 | CCC(C)(C)c1ccc(S(=O)(=O)N(CCCc2cccc(Cl)c2)CCCc2ccc(C(=O)O)s2)cc1 [Example 6g, 5-(3-((3-(3-Chloro-phenyl)-propyl)-(4-(1,1-dimethyl-propyl)-benzenesulfonyl)-amino)-Propyl)-thiophene-2-carboxylic acid]
